# What was measured:
# [1] = molecular target: T1, HLA-DM catalyzed peptide exchange on HLA-DR2 (Homo sapiens, UniProt P28067+P28068); experiment: Dissociation assay: MBP peptide dissociating from HLA-DR2 in the presence of HLA-DM and 100-fold excess unlabeled MBP; format: biochemical; conditions: FIG. 5, F15 versus DMSO
# T1 construct: made in house; host or cells: HLA-DM: S2 insect cells; HLA-DR2b: COS cells; peptides synthesized by New England Peptide, Inc
# Excerpt: FIG. 5b illustrates graphically a dissociation assay of MBP peptide dissociating from HLA-DR2 in the presence of HLA-DM and 100-fold excess unlabeled MBP in the peptide for both F15 and DMSO;
# FIGS. 5a and 5b graphically illustrate the dose reponse curve for compound F15 for disassociation (5a) and association (5b) assays.
# [2] = molecular target: T1, HLA-DM catalyzed peptide exchange on HLA-DR2; experiment: Antigen Presentation Screen: fluorescence polarization association assay of Alexa 488-labeled MBP 85-99 binding to HLA-DR2b/CLIP in the presence of HLA-DM; format: biochemical
# Excerpt: In one detailed aspect of the invention, an assay is described below for detecting and monitoring HLA-DM catalyzed peptide exchange. In particular, the kinetics of peptide exchange can be evaluated and the effects on such kinetics of test compounds can be evaluated. A labeled peptide, such as a fluorescently labled MBP peptide, can be visualized binding to isolated HLA-DR2 in the presence of HLA-DM by Fluorescence Polarization (FP). FP can detect the motion of a fluorescently labeled peptide such as MBP (85-99). The FP detected increases when a fluorescently labeled peptide binds to a receptor. This assay may allow peptide binding to HLA-DR2 to be monitored in real time without interrupting the reaction. In this manner, a number of readings can be made at different times during a single assay. This can provide information about the rate of transfer of a peptide, leading to the identification of compounds that increase or decrease the rate of peptide exchange. It may also lead to the identification of compounds that decrease the rate of peptide exchange by directly preventing peptide binding to MHC class II.
# In the assay described below (Antigen Presentation Screen), Fluorescence Polarization (FP) can be used to monitor the kinetics, including the exchange rate, of exchanging CLIP for myelin basic protein (MBP) peptide on isolated HLA-DR2. MBP peptide consisting of amino acids 85-99 of Myelin Basic Protein is labeled with the fluorescent dye Alexa 488 at the P5 position. The CLIP may be unlabled. A system of isolated HLA-DR2 containing CLIP and labeled MBP peptide are incubated in the presence of HLA-DM. The system may be exposed to test compounds and FP can be used to measure the rate of exchange of CLIP for MBP for each test compound, including a control. A change in fluorescence polarization is monitored and/or recorded using a 485 nm excitation filter and a 530 nm emission filter in a LJL Analyst. Fluorescence readings taken at time intervals can indicate how fast CLIP is being exchanged for MBP in the presence of HLA-DM.
# Proteins: HLA-DR2b containing the CLIP peptide in PBS buffer synthesized by COS cells with covalently linked CLIP peptide. The linker is cut with the addition of 25 U/ml of Thrombin (Novagen 69671) (2 hr incubation at 37° C.) and blocked with Pefablock (Roche 1429-868).
# HLA-DM in PBS buffer, synthesized in S2 insect cells. Purified on a anti-FLAG column with a high pH elution (50 mM CAPS pH 11.5)
# Peptides: MBP 85-99 (Alexa 488 at P5 position) in H2O
# • 1. Add 0.4 μl of library compound in 100% DMSO to wells (see FIG. 7) containing HLA-DR2b. (Library compounds at 50 mM). Also add 0.4 μl DMSO to all control wells during this step. This step can be carried out days before screening commences. • 2. Add 35 μl of 50 mM Citrate pH5.2/150 mM NaCl buffer to wells M23, […], N23 and N24. Add 40 μl of 50 mM Citrate pH 5.2/150 mM NaCl buffer to wells O23, O24, P23 and P24. Add 35 μl of 114 nM HLA-DR2b in 50 mM Citrate pH 5.2/150 mM NaCl buffer to appropriate wells in 384 well plate as shown below in FIG. 9. Make 114 nM HLA-DR2b solution fresh and keep cold until just before addition of library compounds • 5. By hand add 1 μl of MBP 85-99 (unlabeled) titration to control wells as described below in FIG. 10. • 6. Mix HLA-DR2b and compound by shaking with plate shaker for 1 minute. • 7. Incubate HLA-DR2b and compound for 30 minutes at room temperature. • 8. By hand add 5 μl of 80 nM MBP 85-99 (Alexa 488 at P5 position) to control wells (FIG. 11) as described below while plate is incubating at room temperature. • 9. During 30 minute incubation read plates for Fluorescent Intensity using the Analyst (Molecular Devices) Parameters described below. This step is optional if Fluorescent Intensity references have already been read for the compounds being screened. • 10. Add 5 p. 1 of MBP/DM mix (80 nM MBP 85-99 (Alexa 488 at P5 position)/800 nM HLA-DM in 50 mM Citrate pH 5.2/150 mM NaCl buffer) to begin reaction. […]
# T1 sequence (P28067 27-233 limits assumed): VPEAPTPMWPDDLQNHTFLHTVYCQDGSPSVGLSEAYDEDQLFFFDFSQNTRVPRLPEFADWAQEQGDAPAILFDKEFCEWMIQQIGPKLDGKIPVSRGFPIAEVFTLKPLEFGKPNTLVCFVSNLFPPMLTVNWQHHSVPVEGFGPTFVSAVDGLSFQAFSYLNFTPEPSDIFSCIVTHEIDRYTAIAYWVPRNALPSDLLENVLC
# T1 sequence (P28068 19-218 limits assumed): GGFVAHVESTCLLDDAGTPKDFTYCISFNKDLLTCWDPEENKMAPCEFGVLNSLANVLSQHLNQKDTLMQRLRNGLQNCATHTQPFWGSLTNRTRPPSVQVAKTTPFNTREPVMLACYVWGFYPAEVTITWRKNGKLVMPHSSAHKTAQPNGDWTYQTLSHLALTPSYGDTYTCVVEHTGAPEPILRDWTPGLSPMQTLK
structure (smiles),measurement,setting,value
N#CC1=C(SC2CCCCC2)CC(C(=O)O)=C1c1ccc(Cl)cc1 [Compound F15],"dose response curve, dissociation assay",[1],substantial effect even at very low concentrations
same,increase in binding (FP) compared to the control,"[2]; 30 minute sampling time, FIG. 3",about 25%
same,acceleration of peptide exchange over the control (factor),"[2]; F15 at 10 uM, FIG. 4",3
same,Vmax (initial velocity of MBP/HLA-DR2 binding),"[2]; F15 at 10 uM, increasing levels of DR2b, HLA-DM present, FIG. 4, control Vmax 0.02521",0.07611
same,"dose response curve, association assay","[2]; FIG. 5, F15 versus DMSO",substantial effect even at very low concentrations
same,concentration at which a significant increase in the rate of peptide exchange is seen (as low as),"[2]; association assay, FIG. 3, various concentrations of F15",1 µM
same,total amount of peptide exchange compared to the control,"[2]; over a 6 hour period, FIG. 3",about equal

# From patent US8119684B2, “Thiophene derivatives for up-regulating HLA-DM activity” (Dana-Farber Cancer Institute, Inc., priority 2003, dated 2012)
